Assay [1] has as its target T1, transmembrane allosteric modulatory sites of mGluR5 receptors in cortical membranes (Rattus norvegicus, UniProt P31424).
T1 construct: from tissue; host or cells: rat brain cortex membranes
The assay can be described thus: [^3H]-MPEP binding assay in rat cortical membranes. Particulars: read-out: mGluR5_M_MPEP_r_CTX_IC50. As for the experimental part: Male Sprague-Dawley rats (200-250 g) are decapitated and their brains are removed rapidly. The cortex is dissected and homogenized in 20 volumes of ice-cold 0.32 M sucrose using a glass-Teflon homogenizer. The homogenate is centrifuged at 1000×g for 10 minutes. The pellet is discarded and the supernatant centrifuged at 20,000×g for 20 minutes. The resulting pellet is re-suspended in 20 volumes of distilled water and centrifuged for 20 minutes at 8000×g. Then the supernatant and the buffy coat are centrifuged at 48,000×g for 20 minutes in the presence of 50 mM Tris-HCl, pH 8.0. The pellet is then re-suspended and centrifuged two to three more times at 48,000×g for 20 minutes in the presence of 50 mM Tris-HCl, pH 8.0. All centrifugation steps are carried out at 4° C. After resuspension in 5 volumes of 50 mM Tris-HCl, pH 8.0 the membrane suspension is frozen rapidly at −80° C.
On the day of assay the membranes are thawed and washed four times by resuspension in 50 mM Tris-HCl, pH 8.0 and centrifugation at 48,000×g for 20 minutes and finally re-suspended in 50 mM Tris-HCl, pH 7.4. The amount of protein in the final membrane preparation (500-700 μg/ml) is determined according to the method of Lowry (Lowry O. H. et al. 1951. J. Biol. Chem. 193, 256-275).
Alternatively, assays are performed with [^3H]-MMPEP (2-(3-methoxyphenylethynyl)-6-methylpyridine hydrochloride) as radioligand. The incubations are continued at room temperature for 60 minutes (equilibrium is achieved under the conditions used). […] Incubations are terminated using a Millipore filter system. The samples are rinsed twice with 4 ml of ice-cold assay buffer over glass fibre filters (Schleicher & Schuell, Germany) under a constant vacuum. Following separation and rinse, the filters are placed into scintillation liquid (5 ml Ultima Gold, Perkin Elmer, Germany) and radioactivity retained on the filters is determined with a conventional liquid scintillation counter (Canberra Packard, Germany).

Another assay addresses T2, mGluR5 receptors (Rattus norvegicus, UniProt P31424).
T2 construct: endogenous in cells; host or cells: primary astrocytes from neocortex of Sprague-Dawley rat pups
Nature of the assay: Cytosolic calcium studies with astrocytes (astrocyte culture test, FLIPR). The class given is cell-based. To be noted: rat primary astrocytes; L-quisqualate (100 nM); read-out: mGluR5_FLIPRr_rpA IC50. As for the experimental part:
Primary astrocyte cultures are prepared from cortices of newborn rats as described by Booher and Sensenbrenner (1972, Neurobiology 2(3):97-105). Briefly, Sprague-Dawley rat pups (2-4 d old) are decapitated and neocortices are dissected, disintegrated with a nylon filter (pore size 80 μm) and carefully triturated. The cell suspension is plated on poly-D-lysine pre-coated flasks (Costar, Netherlands) and cultivated in Dulbecco's Modified Eagle's Medium (DMEM, Invitrogen, Germany) supplemented with 10% foetal calf serum (FCS, Sigma, Germany), 4 mM glutamine and 50 μg/ml gentamycin (both Biochrom, Germany) at 37° C. in a humidified atmosphere of 5% CO2/95% air for 7 d with exchanging the medium at day 2 and 6.
After 7 days in vitro (DIV), cells are shaken overnight at 250 rpm to remove oligodendrocytes and microglia. The next day, astrocytes are rinsed twice with CMF-PBS (calcium- and magnesium-free phosphate buffered saline, Biochrom, Germany), trypsinized and subplated on poly-D-lysine pre-coated 96-well plates (Greiner, Germany) at a density of 40,000 cells/well. 24 h after establishing the secondary culture the astrocytes are rinsed with PBS^++ (phosphate buffered saline, Biochrom, Germany), and fed with astrocyte-defined medium (ADM) consisting of DMEM containing 1×G^5-supplement (Invitrogen, Germany), 0.5 μg/ml heparan sulfate, and 1.5 μg/ml fibronectin (both Sigma, Germany) (Miller et al., (1993) Brain Res. 618(1):175-8). 3 d later the medium is exchanged and the cells incubated for another 2-3 d, so that at the time of experiments astrocytes are 14-15 DIV.
The increase of cytosolic calcium after stimulation with the mGluR5 agonist L-quisqualate is measured using a fluorometric imaging plate reader (FLIPR) and the Ca-Kit (both Molecular Devices). Prior to addition of agonist or antagonist the medium is aspirated and cells are loaded for 2 h at RT with 150 μl of loading buffer consisting of Ca-sensitive dye reconstituted in sodium chloride (123 mM), potassium chloride (5.4 mM), magnesium chloride (0.8 mM), calcium chloride (1.8 mM), D-glucose (15 mM), and HEPES (20 mM), pH 7.3. Subsequently, plates are transferred to FLIPR to detect calcium increase with the addition of L-quisqualate (100 nM) measured as relative fluorescence units (RFU). If antagonists are tested, these compounds are pre-incubated for 10 minutes at RT before addition of the respective agonist.
The fluorescence signal increase after addition of agonist reflects the increase of cytosolic calcium. Inconsistencies in the amount of cells per well are normalised by using the spatial uniformity correction of the FLIPR software. The mean of replicated temporal data (n=3-5) is calculated and used for graphical representation. For the evaluation of the pharmacology, the calcium changes in response to different concentrations of agonist or antagonist are determined using a maximum minus minimum (MaxMin) calculation.
All responses (RFU-values) are determined as percentage of control (=maximum response). EC50 and IC50 are calculated according the logistic equation using GraFit 5.0 (Erithacus Software, GB) or Prism 4.0 (GraphPad Software, USA).

Assay [2] addresses metabotropic glutamate receptor (mGluR5) (Homo sapiens, UniProt P41594). Nature of the assay: Activity as mGluR5 modulator, test not specified.

T2 sequence (P31424 21-1203): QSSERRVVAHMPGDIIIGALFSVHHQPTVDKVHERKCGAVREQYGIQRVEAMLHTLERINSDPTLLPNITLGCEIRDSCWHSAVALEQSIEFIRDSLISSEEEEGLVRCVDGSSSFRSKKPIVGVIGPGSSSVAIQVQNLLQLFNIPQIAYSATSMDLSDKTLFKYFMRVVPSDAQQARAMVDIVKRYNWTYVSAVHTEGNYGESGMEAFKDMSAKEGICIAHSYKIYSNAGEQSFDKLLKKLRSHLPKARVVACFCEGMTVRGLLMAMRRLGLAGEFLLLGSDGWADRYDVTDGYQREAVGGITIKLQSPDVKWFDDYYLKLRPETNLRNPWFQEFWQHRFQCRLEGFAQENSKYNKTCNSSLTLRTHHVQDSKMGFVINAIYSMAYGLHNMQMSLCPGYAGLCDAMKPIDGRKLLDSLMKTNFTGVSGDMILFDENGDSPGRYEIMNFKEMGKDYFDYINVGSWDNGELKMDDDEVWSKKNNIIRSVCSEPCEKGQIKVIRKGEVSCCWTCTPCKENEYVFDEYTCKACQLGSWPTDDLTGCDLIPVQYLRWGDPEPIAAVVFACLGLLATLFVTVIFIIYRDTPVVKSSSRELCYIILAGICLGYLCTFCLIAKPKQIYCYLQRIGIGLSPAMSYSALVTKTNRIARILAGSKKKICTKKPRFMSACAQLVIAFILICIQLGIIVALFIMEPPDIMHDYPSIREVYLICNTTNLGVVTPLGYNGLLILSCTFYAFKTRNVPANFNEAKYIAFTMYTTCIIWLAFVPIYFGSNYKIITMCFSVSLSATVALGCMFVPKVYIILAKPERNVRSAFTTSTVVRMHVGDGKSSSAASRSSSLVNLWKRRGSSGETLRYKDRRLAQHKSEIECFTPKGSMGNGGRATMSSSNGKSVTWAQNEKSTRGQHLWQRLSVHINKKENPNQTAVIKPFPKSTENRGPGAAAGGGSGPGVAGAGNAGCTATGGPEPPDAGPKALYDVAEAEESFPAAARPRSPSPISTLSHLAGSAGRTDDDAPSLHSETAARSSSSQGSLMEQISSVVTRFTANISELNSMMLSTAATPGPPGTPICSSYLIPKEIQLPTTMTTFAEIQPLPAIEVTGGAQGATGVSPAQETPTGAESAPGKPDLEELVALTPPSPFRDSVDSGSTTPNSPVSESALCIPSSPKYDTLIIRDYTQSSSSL
T1 sequence (P31424 21-1203): as above
Sequence of metabotropic glutamate receptor (mGluR5) (P41594 21-1212): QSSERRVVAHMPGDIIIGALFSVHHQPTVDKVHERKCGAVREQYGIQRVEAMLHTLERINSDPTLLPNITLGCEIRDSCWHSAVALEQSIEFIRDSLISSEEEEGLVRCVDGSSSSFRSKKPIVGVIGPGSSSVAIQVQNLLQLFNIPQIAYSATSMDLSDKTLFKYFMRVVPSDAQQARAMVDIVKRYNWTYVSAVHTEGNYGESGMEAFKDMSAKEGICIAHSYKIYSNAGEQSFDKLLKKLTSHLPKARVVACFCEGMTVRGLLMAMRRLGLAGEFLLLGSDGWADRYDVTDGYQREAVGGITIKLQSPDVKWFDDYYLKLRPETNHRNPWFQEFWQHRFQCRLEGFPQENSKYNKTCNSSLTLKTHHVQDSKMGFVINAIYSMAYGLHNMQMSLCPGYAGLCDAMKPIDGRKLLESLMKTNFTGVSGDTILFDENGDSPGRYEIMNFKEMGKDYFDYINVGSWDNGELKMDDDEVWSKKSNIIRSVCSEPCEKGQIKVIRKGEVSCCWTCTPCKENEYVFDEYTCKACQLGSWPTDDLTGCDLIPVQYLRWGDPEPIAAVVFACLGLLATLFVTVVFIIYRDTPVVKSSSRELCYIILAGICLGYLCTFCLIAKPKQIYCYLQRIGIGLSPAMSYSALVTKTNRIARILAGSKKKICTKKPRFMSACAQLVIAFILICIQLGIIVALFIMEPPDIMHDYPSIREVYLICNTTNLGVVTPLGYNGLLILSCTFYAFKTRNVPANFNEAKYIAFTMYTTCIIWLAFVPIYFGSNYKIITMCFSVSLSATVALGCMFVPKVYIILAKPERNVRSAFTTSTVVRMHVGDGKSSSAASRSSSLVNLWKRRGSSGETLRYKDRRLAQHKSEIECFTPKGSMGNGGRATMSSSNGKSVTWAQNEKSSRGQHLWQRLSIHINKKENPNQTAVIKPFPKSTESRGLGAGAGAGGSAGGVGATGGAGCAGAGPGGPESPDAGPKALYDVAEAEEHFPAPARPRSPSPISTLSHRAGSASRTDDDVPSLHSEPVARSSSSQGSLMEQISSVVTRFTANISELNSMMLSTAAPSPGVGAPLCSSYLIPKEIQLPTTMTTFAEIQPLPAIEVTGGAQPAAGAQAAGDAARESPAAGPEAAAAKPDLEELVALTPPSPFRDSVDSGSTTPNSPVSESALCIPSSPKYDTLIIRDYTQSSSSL

For the compound `COc1ccc2c(c1)CCN(C(=O)c1cc3ncc(Cl)cn3n1)C2C` (stereo not shown) [drawing 460, (6-Chloro-pyrazolo[1,5-a]pyrimidin-2-yl)-(6-methoxy-1-methyl-3,4-dihydro-1H-isoquinolin-2-yl)-methanone], the IC50 in assay [1] stood at 0.027 µM.

In the case of `CC1CN(C(=O)c2cc3ncc(Br)cn3n2)C(C)c2ccccc21` (stereo not shown) [drawing 458, (6-Bromo-pyrazolo[1,5-a]pyrimidin-2-yl)-(1,4-dimethyl-3,4-dihydro-1H-isoquinolin-2-yl)-methanone], the IC50 in assay [1] worked out at 0.091 µM.

`CC1CN(C(=O)c2cc3ncc(Cl)cn3n2)C(C)c2ccccc21` (stereo not shown) [drawing 447, (6-Chloro-pyrazolo[1,5-a]pyrimidin-2-yl)-(1,4-dimethyl-3,4-dihydro-1H-isoquinolin-2-yl)-methanone]: on mGluR5 receptors, the IC50 is 0.064 µM.

`O=C(c1cc2ncc(Cl)cn2n1)N1CCc2ncc(Br)cc2C1` [drawing 452, (3-Bromo-7,8-dihydro-5H-[1,6]naphthyridin-6-yl)-(6-chloro-pyrazolo[1,5-a]pyrimiddin-2-yl)-methanone]: the IC50 at mGluR5 receptors amounted to 0.048 µM.

For `CC1c2cccc(Br)c2CCN1C(=O)c1cc2ncc(Cl)cn2n1` (stereo not shown) [drawing 461, (5-Bromo-1-methyl-3,4-dihydro-1H-isoquinolin-2-yl)-(6-chloro-pyrazolo[1,5-a]pyrimidin-2-yl)-methanone], in assay [1], the IC50 worked out at 0.021 µM.

For the compound `CC1c2ccc(F)cc2CCN1C(=O)c1cc2ncc(Cl)cn2n1` (stereo not shown) [drawing 456, (6-Chloro-pyrazolo[1,5-a]pyrimidin-2-yl)-(6-fluoro-1-methyl-3,4-dihydro-1H-isoquinolin-2-yl)-methanone], in assay [1], the IC50 was determined as 0.04 µM.

For the compound `CC1c2cccc(Br)c2CCN1C(=O)c1cc2ncc(Cl)cn2n1` (stereo not shown) [drawing 451, (5-Bromo-1-methyl-3,4-dihydro-1H-isoquinolin-2-yl)-(6-chloro-pyrazolo[1,5-a]pyrimidin-2-yl)-methanone], the IC50 at mGluR5 receptors was determined as 0.065 µM.

In the case of `O=C(c1cc2ncc(Br)cn2n1)N1CCOCC1` [Example B310, (6-Bromopyrazolo[1,5-a]pyrimidin-2-yl)-morpholin-4-yl-methanone], the “activity as metabotropic glutamate receptor (mGluR5) modulator” value in assay [2] was “no particular activity”.

`CC1c2cccc(F)c2CCN1C(=O)c1cc2ncc(Br)cn2n1` (stereo not shown) [drawing 455, (6-Bromo-pyrazolo[1,5-a]pyrimidin-2-yl)-(5-fluoro-1-methyl-3,4-dihydro-1H-isoquinolin-2-yl)-methanone]: the IC50 in assay [1] was 0.01 µM.

As to `CC1CN(C(=O)c2cc3ncc(Br)cn3n2)C(C)c2ccccc21` (stereo not shown) [drawing 448, (6-Bromo-pyrazolo[1,5-a]pyrimidin-2-yl)-(1,4-dimethyl-3,4-dihydro-1H-isoquinolin-2-yl)-methanone], the IC50 on mGluR5 receptors was determined as 0.083 µM.

`O=C(c1cc2ncc(Br)cn2n1)N1CCCCC1` [Example B308, (6-Bromopyrazolo[1,5-a]pyrimidin-2-yl)-piperidin-1-yl-methanone]: the “activity as metabotropic glutamate receptor (mGluR5) modulator” value in assay [2] is reported as “no particular activity”.

On to `O=C(c1cc2ncc(Cl)cn2n1)N1CCc2ncc(Br)cc2C1` [drawing 462, (3-Bromo-7,8-dihydro-5H-[1,6]naphthyridin-6-yl)-(6-chloro-pyrazolo[1,5-a]pyrimidin-2-yl)-methanone], for which, in assay [1], the IC50 amounted to 0.107 µM.

For `COc1cc2c(cc1O)CCN(C(=O)c1cc3ncc(Br)cn3n1)C2C` (stereo not shown) [drawing 453, 2-[(6-bromopyrazolo[1,5-a]pyrimidin-2-yl)carbonyl]-7-methoxy-1-methyl-1,2,3,4-tetrahydro-6-isoquinolinol], in assay [1], the IC50 was 0.06 µM.

Turning to `COc1ccc2c(c1)CCN(C(=O)c1cc3ncc(Br)cn3n1)C2C` (stereo not shown) [drawing 449, (6-Bromo-pyrazolo[1,5-a]pyrimidin-2-yl)-(6-methoxy-1-methyl-3,4-dihydro-1H-isoquinolin-2-yl)-methanone], at mGluR5 receptors, the IC50 is 0.062 µM.

As to `CC1c2ccc(F)cc2CCN1C(=O)c1cc2ncc(Cl)cn2n1` (stereo not shown) [drawing 446, (6-Chloro-pyrazolo[1,5-a]pyrimidin-2-yl)-(6-fluoro-1-methyl-3,4-dihydro-1H-isoquinolin-2-yl)-methanone], the IC50 on mGluR5 receptors came to 0.047 µM.

On to `CC1c2cc(F)ccc2CCN1C(=O)c1cc2ncc(Br)cn2n1` (stereo not shown) [drawing 444, (6-Bromo-pyrazolo[1,5-a]pyrimidin-2-yl)-(7-fluoro-1-methyl-3,4-dihydro-1H-isoquinolin-2-yl)-methanone], for which the IC50 on mGluR5 receptors is 0.046 µM.

On to `CC1c2cc(F)ccc2CCN1C(=O)c1cc2ncc(Br)cn2n1` (stereo not shown) [drawing 454, (6-Bromo-pyrazolo[1,5-a]pyrimidin-2-yl)-(7-fluoro-1-methyl-3,4-dihydro-1H-isoquinolin-2-yl)-methanone], for which, in assay [1], the IC50 stood at 0.03 µM.

As to `COc1cc2c(cc1O)CCN(C(=O)c1cc3ncc(Br)cn3n1)C2C` (stereo not shown) [drawing 443, 2-[(6-bromopyrazolo[1,5-a]pyrimidin-2-yl)carbonyl]-7-methoxy-1-methyl-1,2,3,4-tetrahydro-6-isoquinolinol], at mGluR5 receptors, the IC50 was 0.043 µM.

As to `CC1CN(C(=O)c2cc3ncc(Cl)cn3n2)C(C)c2ccccc21` (stereo not shown) [drawing 457, (6-Chloro-pyrazolo[1,5-a]pyrimidin-2-yl)-(1,4-dimethyl-3,4-dihydro-1H-isoquinolin-2-yl)-methanone], in assay [1], the IC50 was determined as 0.118 µM.

As for `COc1ccc2c(c1)CCN(C(=O)c1cc3ncc(Br)cn3n1)C2C` (stereo not shown) [drawing 459, (6-Bromo-pyrazolo[1,5-a]pyrimidin-2-yl)-(6-methoxy-1-methyl-3,4-dihydro-1H-isoquinolin-2-yl)-methanone], the IC50 in assay [1] came to 0.02 µM.

Regarding `CC1c2cccc(F)c2CCN1C(=O)c1cc2ncc(Br)cn2n1` (stereo not shown) [drawing 445, (6-Bromo-pyrazolo[1,5-a]pyrimidin-2-yl)-(5-fluoro-1-methyl-3,4-dihydro-1H-isoquinolin-2-yl)-methanone], at mGluR5 receptors, the IC50 amounted to 0.017 µM.

On to `COc1ccc2c(c1)CCN(C(=O)c1cc3ncc(Cl)cn3n1)C2C` (stereo not shown) [drawing 450, (6-Chloro-pyrazolo[1,5-a]pyrimidin-2-yl)-(6-methoxy-1-methyl-3,4-dihydro-1H-isoquinolin-2-yl)-methanone], for which the IC50 at mGluR5 receptors was 0.069 µM.

(Values after US7985753B2, “Substituted pyrazolo[1,5-A]pyrimidines as metabotropic glutamate receptor modulators” (MERZ PHARMA GmbH & Co. KGaA, priority 2006, dated 2011).)
